Data set [1] in a line: Moisture sorption analysis of metal salts of Compound B. It is filed as physicochemical. To be noted: 25° C. The protocol: Metal salts of compounds of Formula I were characterized using XRPD, DSC, thermogravimetry, and moisture sorption analyses. Note that XRPD patterns described below, and provided in FIGS. 1 and 5 were obtained using a Bruker Model D8 X-Ray Diffractometer. Thermogravimetric analyses, DSC analyses, and moisture sorption analyses were performed using a TA Instruments Universal V4.4A instrument.
FIG. 1 provides the XRPD pattern of a sample of a sodium salt of Compound B Referring to FIGS. 2-4, thermogravimetric, DSC, and moisture sorption analyses were performed on a sodium salt of Compound B. Thermogravimetric analysis was conducted using 7.5450 mg of the sodium salt and an instrument setting of 10° C./min. The DSC analysis was performed using a 2.00 mg sample of the sodium salt and an instrument setting of 10° C./min. The moisture sorption analysis was performed on 14.07 mg of sodium salt over a relative humidity range of 5% to 95% at 25° C. with 180 minute max. equilibration time and data sampling every 2 minutes.
FIG. 5 provides the XRPD pattern of a sample of a potassium salt of Compound B Referring to FIGS. 6-8, thermogravimetric, DSC, and moisture sorption analyses were performed on a potassium salt of Compound B. Thermogravimetric analysis was conducted using 15.9290 mg of the potassium salt and an instrument setting of 10° C./min. […]

Data set [2] is described as follows: AUC of compound related materials after oral dosing of Compound B free acid or its Na or K salt. The format is in vivo. To be noted: cynomolgus monkeys, 250 mg free acid equivalents, formulated tablets; compared with free acid. The method, then:
Referring to FIG. 10, the area under the curve (AUC) of compound related materials was compared following dosing of 250 mg of Compound B as powder in capsules of free acid (PIC), formulated tablets of micronized free acid, or formulated tablets of the Na or K salt of Compound B given at the same free acid equivalents. (N=4 cynomolgus monkeys). The formulated, compressed tablet also contained in each case approximately 40.5% lactose, 16.8% microcrystalline cellulose, 1.9% Croscarmellose sodium, 0.5% colloidal silicon dioxide, and 0.9% magnesium stearate.

Data set [3] in a line: Bioavailability of sodium salt of Compound A, oral capsule versus iv injection, crossover design. The format is in vivo. To be noted: male cynomolgus monkeys, oral gavage, 90 mg free base equivalents in gelatin capsules; compared with free base. The method, then: The monkeys fasted overnight and were dosed by oral gavage washed down with 10 ml tap water. Blood samples were taken at 0.25, 0.5, 1, 2, 3, 4, 6, 9, 12, 24, and 48 hours after a single dosage was administered and assayed for drug related materials with a LCMS assay using an internal standard. 90 mg of drug was put in 00 gelatin capsules containing 90 mg of free base equivalents. This was compared to an iv injection of 2 ml/kg and 45 mg of free base solution in 50% hydroxypropyl b-cyclodextran. The absolute availability versus an iv injection was determined for both parent compound and major metabolite.

The next data set has as its system diabetic KKAy mouse. Put plainly: Blood glucose lowering in the diabetic KKAy mouse. It is filed as in vivo. To be noted: diabetic KKAy mice, gavage once daily, measured after 4 daily doses. The method, then:
In these experiments, free base or sodium salt was given to diabetic KKAy mice (N=6) and blood glucose was measured after 4 days of daily treatment at the doses indicated. KKAy mice, 8-12 weeks of age, were given the doses of the compounds according to the dosages on the X axis of FIG. 11. The compounds were given by gavage once daily at 10 mg/kg. On the fifth day (after 4 daily doses at the levels show) a blood sample was taken to measure plasma glucose.

Structures can show the parent of a compound that is named as a salt.

With `COc1cccc(C(=O)COc2ccc(CC3SC(=O)[N-]C3=O)cc2)c1.[K+]` (stereo not shown) [potassium salt of Compound B, Potassium 5-{4-[2-(3-methoxyphenyl)-2-oxoethoxy]benzyl}-2,4-dioxo-1,3-thiazolidin-3-ide], in data set [1] (relative humidity increased from ~5% to ~95% RH), the water uptake is listed as about 21.1 wt %. Moreover, in data set [2], the “bioavailability (AUC of compound related materials)” value is “significantly higher bioavailability”.

Turning to `CCc1ccc(C(=O)COc2ccc(CC3SC(=O)NC3=O)cc2)nc1` (stereo not shown) [sodium salt of Compound A, 5-(4-(2-(5-ethylpyridin-2-yl)-2-oxoethoxy)benzyl)-1,3-thiazolidine-2,4-dione], in data set [3], the “absolute availability versus an iv injection, major metabolite” value is “significantly higher bioavailability” and the “absolute availability versus an iv injection, parent compound” value is reported as “significantly higher bioavailability”. The “lowering blood glucose (plasma glucose)” value in the data set on diabetic KKAy mouse is given as “excellent dose response for lowering blood glucose”.

Consider `COc1cccc(C(=O)COc2ccc(CC3SC(=O)[N-]C3=O)cc2)c1.[Na+]` (stereo not shown) [sodium salt of Compound B, Sodium 5-{4-[2-(3-methoxyphenyl)-2-oxoethoxy]benzyl}-2,4-dioxo-1,3-thiazolidin-3-ide], for which the moisture uptake in data set [1] (between ~6% and ~95% RH) is recorded as about 10.0 wt %. The “bioavailability (AUC of compound related materials)” value in data set [2] is listed as “significantly higher bioavailability”.

(Values after patent US9126959B2, “PPAR-sparing thiazolidinedione salts for the treatment of metabolic diseases” (Metabolic Solutions Development Company, LLC, priority 2009, dated 2015).)
